Measurements published in patent US9624182B2, “Compounds as lysophosphatidic acid receptor antagonists” (Amira Pharmaceuticals, Inc., priority 2009, dated 2017).
Each block holds one compound with its values, some of them ahead of it.

Tests used:
[1] = tested on: nerve-injured mice; conditions: pretreatment; cited from earlier work
[2] = tested on: A2058 human melanoma cells; assay: LPA1 chemotaxis assay; type: cell-based; conditions: LPA 100 nM, read-out: IC50, inhibition of LPA-driven chemotaxis
Protocol: Chemotaxis of the A2058 human melanoma cells was measured using the Neuroprobe ChemoTx® System plates (8 μm pore size, 5.7 mm diameter sites). The filter sites were coated with 0.001% fibronectin (Sigma) in 20 mM Hepes, pH 7.4 and allowed to dry. A2058 cells were serum-starved for 24 hours, then harvested with Cell Stripper and resuspended in DMEM containing 0.1% fatty-acid-free bovine serum albumin (BSA) to a concentration of 1×10^6/ml. Cells were mixed with an equal volume of test compound (2×) in DMEM containing 0.1% fatty-acid-free BSA and incubated at 37° C. for 15 minutes. LPA (100 nM in DMEM containing 0.1% fatty-acid-free BSA) or vehicle was added to each well of the lower chamber and 50 μl of the cell suspension/test compound mix was applied to the upper portion of the ChemoTx plate. Plates were incubated at 37° C. for three hours and then the cells removed from the upper portion by rinsing with PBS and scraping. The filter was dried then stained with HEMA 3 Staining System (Fisher Scientific). The absorbance of the filter was read at 590 nm and IC50s were determined using Symyx Assay Explorer.

[3] = molecular target: T1, human LPA1 (Homo sapiens, UniProt Q92633); assay: LPA1 calcium flux assay; type: cell-based; conditions: CHO cells expressing human LPA1, stimulated with 10 nM LPA; read-out: HLPA1 Ca Flux IC50
T1 construct: the full-length cDNA for human LPA1 was obtained by PCR of the reverse transcription reaction; expressed in transfected cells
Procedure, shortened: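 CHO cells stably expressing cloned human LPA1, serum-starved overnight, loaded with Calcium 4 dye 1 h at 37 °C in HBSS/20 mM Hepes with 0.3% fatty-acid-free HSA. Compounds preincubated 30 min at room temperature, then cells stimulated with 10 nM LPA; intracellular Ca2+ read by fluorescence. IC50 from titration curves.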

[4] = tested on: human foetal lung fibroblasts; conditions: BAL obtained from IPF patients; cited from earlier work
[5] = tested on: pancreatic cancer cell lines; conditions: LPA and peritoneal fluid (ascites) from pancreatic cancer patients; cited from earlier work
[6] = tested on: UUO mice; conditions: UUO mice treated with antagonist; cited from earlier work
[7] = tested on: highly peritoneal metastatic pancreatic cancer cell line; conditions: cited from earlier work
[8] = tested on: mouse epithelial renal cell line, MCT; conditions: MCT cells, co-treatment with LPA; cited from earlier work

T1 sequence (Q92633 whole entry): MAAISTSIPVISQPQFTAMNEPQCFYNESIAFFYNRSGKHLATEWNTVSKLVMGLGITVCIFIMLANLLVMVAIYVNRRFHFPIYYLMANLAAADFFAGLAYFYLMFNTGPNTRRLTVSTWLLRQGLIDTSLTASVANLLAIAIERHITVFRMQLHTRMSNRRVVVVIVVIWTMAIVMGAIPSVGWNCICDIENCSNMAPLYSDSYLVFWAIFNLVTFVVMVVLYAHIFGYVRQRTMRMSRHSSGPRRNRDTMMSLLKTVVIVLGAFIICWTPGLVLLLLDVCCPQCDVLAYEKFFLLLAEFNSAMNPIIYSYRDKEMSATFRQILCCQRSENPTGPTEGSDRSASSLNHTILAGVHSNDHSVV

Compound: C[C@@H](N)[C@H]1CC[C@H](C(=O)Nc2ccncc2)CC1 [Compound Y-27632]
allodynia and hyperalgesia [1]: completely abolished

IC50 [2]: < 100 nM
IC50 [3]: < 300 nM
Compound: Cc1noc(-c2ccc(-c3ccc(C4(C(=O)O)CC4)cc3)cc2)c1C(O)C(F)(F)CCc1ccccc1 (single isomer, unassigned) [Compound 1-255, 1-{4′-[4-(2,2-Difluoro-1-hydroxy-4-phenyl-butyl)-3-methyl-isoxazol-5-yl]-biphenyl-4-yl}-cyclopropanecarboxylic acid]

Compound: Cc1noc(-c2ccc(CSCCC(=O)O)cc2)c1NC(=O)OC(C)c1ccccc1Cl (centres unmarked) [Ki16425]
chemotaxis of human foetal lung fibroblasts induced by BAL from IPF patients [4]: blocked
in vitro migration in response to LPA and ascites [5]: effectively blocked
development of renal fibrosis in UUO mice [6]: closely resembled the LPA1 (−/−) mice
LPA-induced and ascites-induced invasion activity [7]: blocked
LPA-induced increase in CTGF expression [8]: almost completely suppressed
